{
  "source": "patent US20260109690A1",
  "about": "“HDAC6 INHIBITORS AND METHOD OF THEIR USE” (Baerenkraft Therapeutics, LLC., priority 2024, published 2026)",
  "key": {"HDAC6": {"target": "T1, HDAC6 (Homo sapiens, UniProt Q9UBN7)", "T1 sequence (Q9UBN7 1-1215)": "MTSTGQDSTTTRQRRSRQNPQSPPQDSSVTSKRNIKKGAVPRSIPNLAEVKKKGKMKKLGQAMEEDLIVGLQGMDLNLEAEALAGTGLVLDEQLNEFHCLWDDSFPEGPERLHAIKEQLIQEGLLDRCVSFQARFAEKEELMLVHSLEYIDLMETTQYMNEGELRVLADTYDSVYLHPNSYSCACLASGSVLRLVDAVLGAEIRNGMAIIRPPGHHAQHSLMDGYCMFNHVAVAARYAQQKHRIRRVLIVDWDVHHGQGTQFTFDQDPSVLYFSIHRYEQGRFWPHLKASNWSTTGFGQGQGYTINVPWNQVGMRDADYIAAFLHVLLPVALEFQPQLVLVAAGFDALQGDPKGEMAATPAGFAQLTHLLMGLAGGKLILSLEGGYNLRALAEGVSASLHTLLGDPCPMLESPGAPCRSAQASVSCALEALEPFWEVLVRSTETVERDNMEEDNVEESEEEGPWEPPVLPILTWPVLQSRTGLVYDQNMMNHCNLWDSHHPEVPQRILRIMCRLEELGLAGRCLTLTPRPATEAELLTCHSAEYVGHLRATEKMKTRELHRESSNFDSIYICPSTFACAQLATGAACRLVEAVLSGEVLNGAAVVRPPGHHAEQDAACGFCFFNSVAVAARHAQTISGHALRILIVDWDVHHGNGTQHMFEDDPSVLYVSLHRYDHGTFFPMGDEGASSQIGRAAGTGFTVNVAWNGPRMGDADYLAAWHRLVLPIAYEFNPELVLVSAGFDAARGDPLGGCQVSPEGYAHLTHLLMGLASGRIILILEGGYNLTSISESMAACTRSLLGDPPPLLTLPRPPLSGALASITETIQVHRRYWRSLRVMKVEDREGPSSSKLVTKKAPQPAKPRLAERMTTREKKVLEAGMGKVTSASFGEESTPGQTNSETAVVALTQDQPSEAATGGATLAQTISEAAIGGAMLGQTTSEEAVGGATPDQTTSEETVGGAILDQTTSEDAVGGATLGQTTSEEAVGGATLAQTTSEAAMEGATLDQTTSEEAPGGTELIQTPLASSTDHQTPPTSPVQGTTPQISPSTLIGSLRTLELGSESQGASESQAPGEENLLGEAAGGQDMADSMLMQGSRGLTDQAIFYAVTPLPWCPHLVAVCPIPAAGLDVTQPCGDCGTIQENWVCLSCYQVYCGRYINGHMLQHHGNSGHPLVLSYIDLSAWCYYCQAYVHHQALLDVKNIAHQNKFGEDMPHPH", "assay": "NanoBRET assay for target engagement in HEK293 cells transiently transfected with HDAC6", "type": "cell-based", "conditions": "HEK293 cells transfected with HDAC6-NanoLuc Fusion vector, 1 hour"}, "HDAC11": {"target": "T2, HDAC11 (Homo sapiens, UniProt Q96DB2)", "T2 sequence (Q96DB2 1-347)": "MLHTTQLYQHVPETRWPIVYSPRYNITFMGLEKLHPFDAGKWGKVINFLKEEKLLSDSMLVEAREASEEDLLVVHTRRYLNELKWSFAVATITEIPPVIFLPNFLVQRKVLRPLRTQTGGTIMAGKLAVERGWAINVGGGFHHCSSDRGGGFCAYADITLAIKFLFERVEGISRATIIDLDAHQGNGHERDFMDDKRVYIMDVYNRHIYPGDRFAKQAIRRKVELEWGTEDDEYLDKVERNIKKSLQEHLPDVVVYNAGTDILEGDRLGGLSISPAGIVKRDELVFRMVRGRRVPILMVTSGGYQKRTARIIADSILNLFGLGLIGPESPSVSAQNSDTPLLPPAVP", "assay": "HDAC selectivity panel: HDAC11", "type": "biochemical"}, "[1]": {"assay": "ALS mouse model: body weight", "type": "in vivo", "conditions": "SOD1-G93A mice, in g (unit assumed)", "method": "Mice were weighed and randomized into different groups and age matched control groups were kept as such. Test compound I-8 was freshly formulated and administered to the respective animals of each group as per body weight. Animals in G1 and G2 were administered with vehicle. G3 and G4 group animals were dosed with compound I-8 at the dose of 15 mg/kg and 30 mg/kg respectively, per orally; Q.D. G4 animals were administered 30 mg/kg dose until day 34 and 50 mg/kg from day 35 onwards.\nThe body weight of each animal was recorded at the time of randomization and once in 2 days during the study period."}, "[2]": {"system": "B6SJL.SOD1-G93A transgenic mouse model of amyotrophic lateral sclerosis", "assay": "ALS mouse model: neurological scoring", "type": "in vivo, mice", "conditions": "scale of 4-0", "method": "At week 9, animals were treated either with vehicle or compound I-8 per orally Q.D. Animals were scored (twice in a week until week 12 and every day thereafter until termination) for motor impairment using Vercelli neurological scoring system at the scale of 4-0. Animals were subjected to different tests for motor coordination and muscle strength assessment once in two weeks.\nAnimals were scored for motor deficits using the scoring system: • 4—Normal/no sign of motor dysfunction • 3—Presence of hindlimb tremors when suspended by tail • 2—Presence of gait abnormalities • […]—Dragging at least one hindlimb • Absence of right reflex within 30 seconds\nAnimals were scored twice a week from initiation of treatment until week 12 and everyday thereafter until termination."}, "[3]": {"conditions": "G4 30 mg/kg (50 mg/kg from day 34) p.o. QD, Day 1"}, "[4]": {"conditions": "G4 30 mg/kg (50 mg/kg from day 34) p.o. QD, Day 7"}, "[5]": {"conditions": "G4 30 mg/kg (50 mg/kg from day 34) p.o. QD, Day 13"}, "[6]": {"conditions": "G4 30 mg/kg (50 mg/kg from day 34) p.o. QD, Day 21"}, "[7]": {"conditions": "G4 30 mg/kg (50 mg/kg from day 34) p.o. QD, Day 35"}, "[8]": {"conditions": "G4 30 mg/kg (50 mg/kg from day 34) p.o. QD, Day 49"}, "[9]": {"conditions": "G4 30 mg/kg (50 mg/kg from day 34) p.o. QD, Day 52 (n = 6-8)"}},
  "note": "pIC50: −log10 of the molar value.",
  "data": [
    {"smiles": "CC1CN(Cc2ccc(Nc3nccc(-c4ccc(C(=O)NO)cc4)n3)cc2F)CCO1", "note": "(racemic) [Compound I-8, 4-(2-((3-fluoro-4-((2-methylmorpholino)methyl)phenyl)amino)pyrimidin-4-yl)-N-hydroxybenzamide]", "values": [
      {"measurement": "pIC50", "setting": "HDAC6", "result": 7.46},
      {"measurement": "pIC50", "setting": "HDAC11", "result": 6.38},
      {"measurement": "Body weight", "setting": "[1]; G3 15 mg/kg p.o. QD, Day 1", "result": "25.99 ± 0.73"},
      {"measurement": "Body weight", "setting": "[1]; G3 15 mg/kg p.o. QD, Day 7", "result": "25.97 ± 0.70"},
      {"measurement": "Body weight", "setting": "[1]; G3 15 mg/kg p.o. QD, Day 13", "result": "26.54 ± 0.52"},
      {"measurement": "Body weight", "setting": "[1]; G3 15 mg/kg p.o. QD, Day 21", "result": "26.81 ± 0.45"},
      {"measurement": "Body weight", "setting": "[1]; G3 15 mg/kg p.o. QD, Day 27", "result": "26.51 ± 0.46"},
      {"measurement": "Body weight", "setting": "[1]; G3 15 mg/kg p.o. QD, Day 35", "result": "26.76 ± 0.43"},
      {"measurement": "Body weight", "setting": "[1]; G3 15 mg/kg p.o. QD, Day 43", "result": "26.60 ± 0.50"},
      {"measurement": "Body weight", "setting": "[1]; G3 15 mg/kg p.o. QD, Day 49", "result": "25.47 ± 0.62"},
      {"measurement": "Body weight", "setting": "[1]; G3 15 mg/kg p.o. QD, Day 52", "result": "24.52 ± 0.68"},
      {"measurement": "Body weight", "setting": "[1]; [3]", "result": "25.66 ± 0.48"},
      {"measurement": "Body weight", "setting": "[1]; [4]", "result": "25.64 ± 0.40"},
      {"measurement": "Body weight", "setting": "[1]; [5]", "result": "26.14 ± 0.52"},
      {"measurement": "Body weight", "setting": "[1]; [6]", "result": "27.53 ± 0.60"},
      {"measurement": "Body weight", "setting": "[1]; G4 30 mg/kg (50 mg/kg from day 34) p.o. QD, Day 27", "result": "27.29 ± 0.52"},
      {"measurement": "Body weight", "setting": "[1]; [7]", "result": "26.55 ± 0.57"},
      {"measurement": "Body weight", "setting": "[1]; G4 30 mg/kg (50 mg/kg from day 34) p.o. QD, Day 43", "result": "26.04 ± 0.60"},
      {"measurement": "Body weight", "setting": "[1]; [8]", "result": "24.30 ± 0.96"},
      {"measurement": "Body weight", "setting": "[1]; [9]", "result": "24.75 ± 0.45"},
      {"measurement": "Neurological scoring", "setting": "[2]; G3 15 mg/kg p.o. QD, Day 1", "result": "4 ± 0"},
      {"measurement": "Neurological scoring", "setting": "[2]; G3 15 mg/kg p.o. QD, Day 7", "result": "4 ± 0"},
      {"measurement": "Neurological scoring", "setting": "[2]; G3 15 mg/kg p.o. QD, Day 13", "result": "3.89 ± 0.11"},
      {"measurement": "Neurological scoring", "setting": "[2]; G3 15 mg/kg p.o. QD, Day 21", "result": "3.44 ± 0.18"},
      {"measurement": "Neurological scoring", "setting": "[2]; G3 15 mg/kg p.o. QD, Day 28", "result": "3.11 ± 0.26"},
      {"measurement": "Neurological scoring", "setting": "[2]; G3 15 mg/kg p.o. QD, Day 35", "result": "2.22 ± 0.22"},
      {"measurement": "Neurological scoring", "setting": "[2]; G3 15 mg/kg p.o. QD, Day 42", "result": "2.11 ± 0.20"},
      {"measurement": "Neurological scoring", "setting": "[2]; G3 15 mg/kg p.o. QD, Day 49", "result": "1.89 ± 0.20"},
      {"measurement": "Neurological scoring", "setting": "[2]; G3 15 mg/kg p.o. QD, Day 52", "result": "1.56 ± 0.29"},
      {"measurement": "Neurological scoring", "setting": "[2]; [3]", "result": "4 ± 0"},
      {"measurement": "Neurological scoring", "setting": "[2]; [4]", "result": "4 ± 0"},
      {"measurement": "Neurological scoring", "setting": "[2]; [5]", "result": "3.75 ± 0.16"},
      {"measurement": "Neurological scoring", "setting": "[2]; [6]", "result": "3.5 ± 0.19"},
      {"measurement": "Neurological scoring", "setting": "[2]; G4 30 mg/kg (50 mg/kg from day 34) p.o. QD, Day 28", "result": "3 ± 0.27"},
      {"measurement": "Neurological scoring", "setting": "[2]; [7]", "result": "2.25 ± 0.25"},
      {"measurement": "Neurological scoring", "setting": "[2]; G4 30 mg/kg (50 mg/kg from day 34) p.o. QD, Day 42", "result": "2.13 ± 0.23"},
      {"measurement": "Neurological scoring", "setting": "[2]; [8]", "result": "1.88 ± 0.30"},
      {"measurement": "Neurological scoring", "setting": "[2]; [9]", "result": "2 ± 0.26"}
    ]}
  ]
}
